Assay results: article PMC10583824, “The rational design of ARUK2007145, a dual inhibitor of the α and γ isoforms of the lipid kinase phosphatidylinositol 5-phosphate 4-kinase (PI5P4K)” (RSC Medicinal Chemistry, 2023)
≈ marks a conversion by molar mass, not a printed value.

Key:
[1] = target: T1, PI5P4Kγ+ (Homo sapiens, UniProt Q8TBX8, D138G/D197E/E133P/E135D/E153T/E196G/G139A/N195G/S132L/S134N); experiment: biochemical
T1 sequence (Q8TBX8 with tags, fused parts or gaps INS131LPN/S132D/E133S/S134Q/E135A/G136R/D138G/G139A/E153T/N195G/E196G/D197E): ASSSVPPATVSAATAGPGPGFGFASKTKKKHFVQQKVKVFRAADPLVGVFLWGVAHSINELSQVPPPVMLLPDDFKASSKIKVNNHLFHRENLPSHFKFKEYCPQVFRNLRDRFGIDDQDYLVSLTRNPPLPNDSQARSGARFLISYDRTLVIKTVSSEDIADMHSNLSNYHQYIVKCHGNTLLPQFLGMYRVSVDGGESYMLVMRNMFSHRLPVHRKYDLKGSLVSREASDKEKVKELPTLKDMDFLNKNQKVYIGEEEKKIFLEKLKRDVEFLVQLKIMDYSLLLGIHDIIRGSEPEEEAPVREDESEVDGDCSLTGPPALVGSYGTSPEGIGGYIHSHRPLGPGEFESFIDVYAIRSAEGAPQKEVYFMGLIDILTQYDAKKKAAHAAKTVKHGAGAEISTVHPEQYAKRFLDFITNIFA

[2] = tested on: PI5P4Kγ+; conditions: ratio PI5P4Kα IC50 / PI5P4Kγ+ IC50, ADP-Glo
[3] = target: T2, PI5P4Kα (Homo sapiens, UniProt P48426); experiment: biochemical
T2 sequence (P48426 1-406): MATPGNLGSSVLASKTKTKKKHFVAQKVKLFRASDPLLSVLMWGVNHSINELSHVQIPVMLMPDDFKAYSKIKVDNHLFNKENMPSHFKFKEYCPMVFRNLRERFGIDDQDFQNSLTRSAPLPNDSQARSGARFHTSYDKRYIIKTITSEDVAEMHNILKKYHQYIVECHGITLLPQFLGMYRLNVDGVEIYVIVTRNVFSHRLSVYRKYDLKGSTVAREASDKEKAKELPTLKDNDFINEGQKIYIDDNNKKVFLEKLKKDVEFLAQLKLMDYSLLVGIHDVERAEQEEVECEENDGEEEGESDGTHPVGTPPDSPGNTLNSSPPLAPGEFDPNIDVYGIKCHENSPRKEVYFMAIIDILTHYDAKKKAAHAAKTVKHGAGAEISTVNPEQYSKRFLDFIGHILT

[4] = target: T2, PI5P4Kα; conditions: for PI5P4Kα pIC50: ADP-Glo, footnote a: inconsistent replicates, value shown is upper limit; for ADP-Glo pIC50 PI5P4Kα: Table S1, two decimals, asterisk not explained
[5] = tested on: MDCK-MDR1 cells; experiment: MDR1-MDCK bi-directional permeability and efflux; conditions: MDCK-MDR1 cells; A2B; 10 µM
Experimental: MDR1-MDCK Permeability (bi-directional): was performed by Cyprotex Discovery. Briefly, compounds were administered at 10 µM (1% DMSO final) to the apical or basolateral side of a confluent monolayer of MDR1-MDCK cells, then incubated at 37 °C for 60 minutes before appearance on the opposite side of the monolayer was determined LC-MS/MS. The efflux ratio (ER) is calculated from the ratio of B-A to A-B permeabilities.

[6] = Mouse liver microsome stability; format: in vitro ADME; conditions: mouse liver microsomes half-life; read-out: MLM t½
Experimental: (§1) ADMET experimental methods […]
Mouse Microsomal stability: analysis was performed by Cyprotex Discovery. Briefly, test compounds in DMSO
protein/mL) in the presence of NADPH (1 mM) at 37 °C. Aliquots were taken at time intervals (0, 5, 15, 30 and
compound remaining, allowing the determination of the half-life for the compound.

[7] = Turbidimetric aqueous solubility; format: physicochemical; conditions: pH 7.4, turbidimetric
Experimental: as §1
Turbidimetric aqueous solubility: analysis was performed by Cyprotex Discovery. Compound in DMSO at 10 mM was serially diluted to solutions of 0.1, 0.3, 1 and 3 mM in DMSO, then further diluted 1 in 100 in buffer (0.01 M PBS, pH 7.4, 1% DMSO final). 7 replicate wells of each dilution were equilibrated for 2 hours at 37 °C before absorbance is measured at 620 nm. The solubility is estimated from the concentration of test compound that produces an increase in absorbance above vehicle control (1% DMSO in buffer). […]

[8] = ADP-Glo pIC50 PI5P4Kγ+, Table S1, two decimals, asterisk not explained
[9] = PI5P4Kγ+ pIC50, ADP-Glo, footnote a: inconsistent replicates, value shown is upper limit
[10] = ADP-Glo pIC50 PI5P4Kα, Table S1, two decimals, asterisk not explained
[11] = PI5P4Kα pIC50, ADP-Glo, footnote a: inconsistent replicates, value shown is upper limit

Row | IC50 [1, 8] [nM] | IC50 [1, 9] [nM] | Fold-selectivity (α IC50/γ IC50) [2] | IC50 [3, 10] [nM] | PI5P4Kα pIC50 [4] | ADP-Glo pIC50 PI5P4Kα [4] | P app (A2B) [5] | half-life at 1 µM [6] [min] | solubility at 2 h [7] [µM] | IC50 [3, 11] [nM] | Compound
1 | 34.7 | 31.6 | 130 | 4570 | 5.3 |  |  |  |  |  | CS(=O)(=O)c1ccc(Nc2ncnc3sc(-c4cccnc4)cc23)cc1 [Compound 9]
2 | 661 | 631 | 1.1 | 708 | 6.2 |  |  |  |  |  | COc1ccc(Nc2ncnc3sc(-c4ccncc4C)cc23)cc1 [Compound 27]
3 | 15.5 | 15.8 | 79 |  | 5.9 | 5.88 |  |  |  |  | CS(=O)(=O)c1ccc(Nc2ncnc3sc(-c4cn[nH]c4)cc23)cc1 [Compound 7]
4 | 19.5 | 20 |  | 135 | 6.9 |  | 3.7 ^d 10^−6 cm s^−1 | 0.94 | 3 (≈ 1.09 µg/mL) |  | CSc1ccc(Nc2ncnc3sc(-c4ccncc4C)cc23)cc1 [Compound 26]
5 | 64.6 | 63.1 | 130 |  |  | 5.08 |  |  |  | ≥ 7940 | CS(=O)(=O)c1ccc(Nc2ncnc3sc(-c4ccnc(Cl)c4)cc23)cc1 [Compound 13]
6 |  | 100 | >250 |  | <4.6 |  |  |  |  |  | CS(=O)(=O)c1ccc(Nc2ncnc3sc(-c4ccncc4F)cc23)cc1 [Compound 12]
7 | 22.4 | 20 | 63 | 1410 | 5.9 |  |  |  |  |  | CS(=O)(=O)c1ccc(Nc2ncnc3sc(-c4ccncc4)cc23)cc1 [Compound 6]
8 |  | 50.1 | >980 |  | <4.3 |  |  |  |  |  | Cc1csc2ncnc(Nc3ccc(S(C)(=O)=O)cc3)c12 [Compound 31]
9 | 1550 | 1580 | 0.4 |  | 6.2 | 6.22 |  |  |  |  | Cc1ccc(Nc2ncnc3sc(-c4cccnc4C)cc23)cc1 [Compound 22]
10 | 32.4 | ≥ 31.6 | 79 |  |  | 5.58 |  |  |  | ≥ 2510 | COc1cnccc1-c1cc2c(Nc3ccc(S(C)(=O)=O)cc3)ncnc2s1 [Compound 11]
11 |  |  |  |  |  |  | 6.23 10^−6 cm s^−1 |  | 1 (≈ 0.381 µg/mL) |  | CS(=O)(=O)c1ccc(Nc2ncnc3sc(-c4ccccc4)cc23)cc1 [Compound 5]

Further lines, the molecule ahead of its results:

Row | Compound | IC50 [1, 8] [nM] | IC50 [1, 9] [nM] | Fold-selectivity (α IC50/γ IC50) [2] | IC50 [3, 10] [nM] | PI5P4Kα pIC50 [4] | ADP-Glo pIC50 PI5P4Kα [4] | P app (A2B) [5] | half-life at 1 µM [6] [min] | solubility at 2 h [7] [µM] | IC50 [3, 11] [nM]
12 | CSc1ccc(Nc2ncnc3sc(-c4cccnc4Cl)cc23)cc1 [Compound 28] | 18.6 | 20 | 12 | 229 | 6.6 |  |  |  |  | 
13 | Cc1sc2ncnc(Nc3ccc(S(C)(=O)=O)cc3)c2c1C [Compound 35] |  | 200 | >250 |  | <4.3 |  |  |  |  | 
14 | CSc1ccc(Nc2ncnc3sc(-c4cccnc4C)cc23)cc1 [Compound 25] | 46.8 | 50.1 | 5.0 | 282 | 6.6 |  |  |  |  | 
15 | CCc1ccc(Nc2ncnc3sc(-c4cccnc4C)cc23)cc1 [Compound 23] | 389 | 398 | 1.6 |  | 6.2 | 6.22 |  |  |  | 
16 | Cc1ncccc1-c1cc2c(Nc3ccc(C4CC4)cc3)ncnc2s1 [Compound 24] | 110 | 100 | 2.5 |  | 6.6 | 6.62 |  |  |  | 
17 | CN(C(=O)c1csc2ncnc(Nc3ccc(S(C)(=O)=O)cc3)c12)c1ccccc1 [Compound 34] |  | 50.1 | 50 |  | 5.6 |  |  |  |  | 
18 | Cc1ncccc1-c1cc2ncnc(Nc3ccc(S(F)(F)(F)(F)F)cc3)c2s1 [Compound 40] |  | 100 | 6.3 |  | 6.2 |  |  |  |  | 
19 | COc1ccc(Nc2ncnc3sc(-c4cccnc4C)cc23)cc1 [Compound 20] | 1910 | 2000 | 0.69 |  | 5.9 | 5.88 |  |  |  | 
20 | Cc1ccc(Nc2ncnc3sc(-c4cccnc4C)cc23)cc1C [Compound 18] | 1350 | 1260 | 0.25 |  | 6.5 | 6.48 |  |  |  | 
21 | Cc1cccc(Nc2ncnc3sc(-c4cccnc4C)cc23)c1 [Compound 21] | 5250 | 5010 | 0.63 | 3550 | 5.5 |  |  |  |  | 
22 | Cc1ncccc1-c1cc2ncnc(Nc3ccc(N4CCCC4=O)cc3)c2s1 [Compound 42] | 8.32 | 7.94 |  | 112 | 7.0 |  | 3.15 10^−6 cm s^−1 | 5.39 | 10 (≈ 4.01 µg/mL) | 
23 | CSc1ccc(Nc2ncnc3sc(-c4c(C)noc4C)cc23)cc1 [Compound 30] | 24.5 | 25.1 | 6.3 |  | 6.8 | 6.81 |  |  |  | 
24 | Cc1ccc(Nc2ncnc3sc(-c4cccnc4C)cc23)c(C)c1 [Compound 19] | 4370 | 3980 | 0.79 |  | 5.5 | 5.48 |  |  |  | 
25 | Cc1ncccc1-c1cc2ncnc(Nc3ccc4ncoc4c3)c2s1 [Compound 41] | 562 | 501 | 5.9 |  | 5.5 | 5.48 |  |  |  | 
